One test addresses T1, NMDAR2A (Homo sapiens, UniProt Q12879).
T1 construct: expressed in transfected cells; host or cells: HEK cells (membrane extract)
The test is described as follows: NMDAR agonist assay, [3H]MK-801 binding, NMDAR2A expressing HEK cell membranes. Further details: key to NMDAR2A B: log EC50: 0=−; ≥1×10^−9 M (e.g., −8)=+; <1×10^−9 M (e.g., −10)=++. Conditions: 50 μM glutamate; for EC50: read-out: NMDAR2A B: log EC50 (converted); for Emax: 0.25 h, read-out: NMDAR2A A: % maximal [3H]MK-801 binding relative to 1 mM glycine; for Emax / NMDAR2A A: % maximal [3H]MK-801 binding relative to 1 mM glycine: relative to 1 mM glycine. The test is classed as biochemical. Here is the method: (§1) Assays were conducted as described by Moskal et al., “GLYX-13: a monoclonal antibody-derived peptide that acts as an N-methyl-D-aspartate receptor modulator,” Neuropharmacology, 49, 1077-87, 2005. These studies were designed to determine if the test compounds act to facilitate NMDAR activation in NMDAR2A, NMDAR2B, NMDAR2C or NMDAR2D expressing HEK cell membranes as measured by increases in [^3H]MK-801 binding.
(§2) In the assay, 300 μg of NMDAR expressing HEK cell membrane extract protein was preincubated for 15 minutes at […] in the presence of saturating concentrations of glutamate (50 μM) and varying concentrations of test compound (1×10^−15M-1×10^−7M), or 1 mM glycine. Following the addition of 0.3 μCi of [3H]MK-801 (22.5 Ci/mmol), reactions were again incubated for 15 minutes at 25° C. (nonequilibrium conditions). Bound and free [3H]MK-801 were separated via rapid filtration using a Brandel apparatus.
(§3) In analyzing the data, the DPM (disintegrations per minute) of [3H]MK-801 remaining on the filter were measured for each concentration of test compound or for 1 mM glycine. The DPM values for each concentration of a ligand (N=2) were averaged. The baseline value was determined from the best fit curve of the DPM values modeled using the GraphPad program and the log(agonist) vs. response (three parameters) algorithm was then subtracted from all points in the dataset. The % maximal [^3H]MK-801 binding was then calculated relative to that of 1 mM glycine: all baseline subtracted DPM values were divided by the average value for 1 mM glycine. The EC50 and % maximal activity were then obtained from the best fit curve of the % maximal [3H]MK-801 binding data modelled using the GraphPad program and the log(agonist) vs. response (three parameters) algorithm.
(§4) The tables below summarize the results for the wild type […] NMDAR2A, NMDAR2B, NMDAR2C, and NMDAR2D, and whether the compound is not an agonist (−), is an agonist (+), or is a strong agonist (++), where column A is based on the % maximal [3H]MK-801 binding relative to 1 mM glycine (−=0; <100%=+; and >100%=++); and column B is based on log EC50 values (0=−; ≥1×10^−9 M (e.g., −8)=+; and <1×10^−9 M (e.g., −10)=++).

A further test concerns the target T2, NMDAR2B (Homo sapiens, UniProt Q13224).
T2 construct: expressed in transfected cells; host or cells: HEK cells (membrane extract)
The test is described as follows: NMDAR agonist assay, [3H]MK-801 binding, NMDAR2B expressing HEK cell membranes. The test is classed as biochemical. Further details: key to NMDAR2B B: log EC50: 0=−; ≥1×10^−9 M (e.g., −8)=+; <1×10^−9 M (e.g., −10)=++. To be noted: 50 μM glutamate; for EC50: read-out: NMDAR2B B: log EC50 (converted); for Emax / NMDAR2B A: % maximal [3H]MK-801 binding relative to 1 mM glycine: relative to 1 mM glycine; for Emax: read-out: NMDAR2B A: % maximal [3H]MK-801 binding relative to 1 mM glycine. How it is done:
as §1, §2, §3, §4

Structures are written as SMILES. Bounds are passed on as bounds.

T1 sequence (Q12879 23-1464, species assumed, other chains not shown): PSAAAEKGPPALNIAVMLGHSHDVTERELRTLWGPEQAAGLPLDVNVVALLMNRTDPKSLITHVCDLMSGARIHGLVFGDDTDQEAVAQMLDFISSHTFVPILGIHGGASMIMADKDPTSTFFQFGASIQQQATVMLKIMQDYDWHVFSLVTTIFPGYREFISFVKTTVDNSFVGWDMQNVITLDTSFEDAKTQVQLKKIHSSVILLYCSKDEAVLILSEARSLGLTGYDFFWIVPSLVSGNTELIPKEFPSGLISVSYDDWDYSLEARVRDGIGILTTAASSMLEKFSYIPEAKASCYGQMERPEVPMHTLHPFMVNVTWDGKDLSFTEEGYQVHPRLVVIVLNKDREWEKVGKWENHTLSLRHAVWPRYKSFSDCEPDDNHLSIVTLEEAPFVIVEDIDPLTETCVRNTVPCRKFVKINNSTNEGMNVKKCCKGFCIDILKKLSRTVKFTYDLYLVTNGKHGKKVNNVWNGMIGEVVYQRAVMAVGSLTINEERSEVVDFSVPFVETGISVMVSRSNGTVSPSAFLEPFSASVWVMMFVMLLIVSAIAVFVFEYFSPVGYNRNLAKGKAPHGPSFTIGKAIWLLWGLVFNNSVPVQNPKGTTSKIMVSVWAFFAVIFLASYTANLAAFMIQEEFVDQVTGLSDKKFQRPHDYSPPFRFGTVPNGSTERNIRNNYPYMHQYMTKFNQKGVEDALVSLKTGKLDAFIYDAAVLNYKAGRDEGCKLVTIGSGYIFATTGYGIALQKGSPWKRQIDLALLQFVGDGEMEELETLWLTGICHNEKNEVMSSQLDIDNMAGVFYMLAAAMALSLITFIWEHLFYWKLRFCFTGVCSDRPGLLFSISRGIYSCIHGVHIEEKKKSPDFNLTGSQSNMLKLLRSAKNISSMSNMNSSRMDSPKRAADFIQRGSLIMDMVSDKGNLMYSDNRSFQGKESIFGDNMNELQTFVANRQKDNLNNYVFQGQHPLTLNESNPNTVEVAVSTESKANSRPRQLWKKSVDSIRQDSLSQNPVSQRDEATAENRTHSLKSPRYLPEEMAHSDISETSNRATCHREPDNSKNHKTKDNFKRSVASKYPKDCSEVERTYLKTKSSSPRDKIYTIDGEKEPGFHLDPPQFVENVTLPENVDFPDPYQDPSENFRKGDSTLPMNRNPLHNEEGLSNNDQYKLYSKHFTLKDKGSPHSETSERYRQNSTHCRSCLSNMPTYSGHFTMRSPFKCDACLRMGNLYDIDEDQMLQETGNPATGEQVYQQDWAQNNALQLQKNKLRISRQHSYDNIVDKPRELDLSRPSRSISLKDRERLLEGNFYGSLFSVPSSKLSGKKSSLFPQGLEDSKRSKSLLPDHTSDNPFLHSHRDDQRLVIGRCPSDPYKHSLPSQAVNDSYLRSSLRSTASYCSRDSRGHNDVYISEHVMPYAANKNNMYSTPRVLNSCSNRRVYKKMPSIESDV
T2 sequence (Q13224 27-1484, species assumed, other chains not shown): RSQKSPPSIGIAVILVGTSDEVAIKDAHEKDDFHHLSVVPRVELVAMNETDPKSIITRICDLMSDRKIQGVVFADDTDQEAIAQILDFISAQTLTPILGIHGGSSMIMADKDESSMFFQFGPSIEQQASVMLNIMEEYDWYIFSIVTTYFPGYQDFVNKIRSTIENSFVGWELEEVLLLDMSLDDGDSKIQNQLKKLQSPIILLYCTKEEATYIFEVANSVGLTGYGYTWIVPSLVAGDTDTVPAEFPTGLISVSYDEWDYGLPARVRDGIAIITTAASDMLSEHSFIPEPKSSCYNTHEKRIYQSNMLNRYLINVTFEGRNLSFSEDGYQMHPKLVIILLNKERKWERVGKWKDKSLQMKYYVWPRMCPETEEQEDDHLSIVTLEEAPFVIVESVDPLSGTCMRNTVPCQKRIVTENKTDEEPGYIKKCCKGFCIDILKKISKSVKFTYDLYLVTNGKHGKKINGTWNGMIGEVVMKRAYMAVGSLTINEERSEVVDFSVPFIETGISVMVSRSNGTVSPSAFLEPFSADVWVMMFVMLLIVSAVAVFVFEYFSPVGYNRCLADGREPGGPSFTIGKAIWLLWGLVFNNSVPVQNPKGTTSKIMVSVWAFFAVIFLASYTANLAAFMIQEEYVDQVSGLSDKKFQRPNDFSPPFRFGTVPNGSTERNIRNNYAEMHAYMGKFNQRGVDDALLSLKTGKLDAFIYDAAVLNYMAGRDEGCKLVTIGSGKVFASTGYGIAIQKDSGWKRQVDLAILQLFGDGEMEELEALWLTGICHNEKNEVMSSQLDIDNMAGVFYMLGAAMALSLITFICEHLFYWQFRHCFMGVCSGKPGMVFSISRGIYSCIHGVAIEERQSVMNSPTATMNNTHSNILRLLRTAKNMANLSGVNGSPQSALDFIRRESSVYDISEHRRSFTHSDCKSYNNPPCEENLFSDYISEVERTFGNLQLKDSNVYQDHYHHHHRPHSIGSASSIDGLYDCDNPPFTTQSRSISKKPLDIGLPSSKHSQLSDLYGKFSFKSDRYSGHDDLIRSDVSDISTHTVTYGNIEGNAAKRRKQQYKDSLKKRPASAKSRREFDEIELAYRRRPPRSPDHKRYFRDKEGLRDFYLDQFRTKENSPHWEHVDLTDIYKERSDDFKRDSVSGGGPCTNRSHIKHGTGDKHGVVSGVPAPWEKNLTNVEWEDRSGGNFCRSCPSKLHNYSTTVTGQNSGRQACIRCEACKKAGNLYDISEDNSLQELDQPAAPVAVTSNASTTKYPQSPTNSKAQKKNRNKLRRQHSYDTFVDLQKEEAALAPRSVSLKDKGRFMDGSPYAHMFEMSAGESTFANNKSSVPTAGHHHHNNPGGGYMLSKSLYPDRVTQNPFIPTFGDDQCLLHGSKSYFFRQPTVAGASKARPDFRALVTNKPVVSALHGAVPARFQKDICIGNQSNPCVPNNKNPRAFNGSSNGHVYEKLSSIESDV

What is called EC50 is the concentration that produces a half-maximal response. With `O=C1NCCCC12CCCNC2` (single isomer, unassigned) [CD, 2,8-diazaspiro[5.5]undecan-1-one], at NMDAR2A, the EC50 is < 1 nM and the Emax was < 100%. At NMDAR2B, the EC50 is < 1 nM and the Emax is < 100%.
For `O=C1NCCCCC12CCCCN2` (single isomer, unassigned) [BA, 1,8-diazaspiro[5.6]dodecan-7-one], the EC50 on NMDAR2A and at NMDAR2B was < 1 nM in each case.
Regarding `O=C1NCCCCC12CCCNC2` (single isomer, unassigned) [CG, 2,8-diazaspiro[5.6]dodecan-7-one], the EC50 at NMDAR2A and at NMDAR2B was < 1 nM each time.
Consider `CC(=O)N1CCCC12CC=CCNC2=O` (single isomer, unassigned) [GG-1, 1-acetyl-1,7-diazaspiro[4.6]undec-9-en-6-one], for which the EC50 at NMDAR2A and at NMDAR2B was < 1 nM throughout. Moreover, the Emax on NMDAR2A and at NMDAR2B was < 100% throughout.
`CC(C)(C)OC(=O)N1CCCCCC12CNC2=O` (single isomer, unassigned) [EI-2, tert-butyl 1-oxo-2,5-diazaspiro[3.6]decane-5-carboxylate]: the EC50 at NMDAR2A was < 1 nM.
Consider `O=C1NCCCC12CCCN2` (stereo not shown) [EU-1, 1,7-diazaspiro[4.5]decan-6-one], for which, at NMDAR2A, the “NMDAR2A B: log EC50” value is “−” and the Emax was found to be 0%. Further, on NMDAR2B, the EC50 is < 1 nM and the Emax was < 100%.
Turning to `O=C1NCCCC12CCCNC2` (single isomer, unassigned) [CE, 2,8-diazaspiro[5.5]undecan-1-one], the EC50 on NMDAR2A and at NMDAR2B was < 1 nM throughout.
Consider `CN1CC=CCC2(CCCN2C)C1=O` (stereo not shown) [listing 1 of 2 here], for which, at NMDAR2A, the EC50 was < 1 nM and the “NMDAR2A A: % maximal [3H]MK-801 binding relative to 1 mM glycine” value was “+ (<100%=+)”. Further, at NMDAR2B, the “NMDAR2B B: log EC50” value is “−” and the “NMDAR2B A: % maximal [3H]MK-801 binding relative to 1 mM glycine” value is listed as “− (−=0)”.
On to `CC(C)C(=O)N1CCC2(CCCN2C(=O)C(C)C)C1=O` (single isomer, unassigned) [GU-2, 1,1′-(6-oxo-1,7-diazaspiro[4.4]nonane-1,7-diyl)bis(2-methylpropan-1-one)], for which, on NMDAR2A, the EC50 is < 1 nM and the “NMDAR2A A: % maximal [3H]MK-801 binding relative to 1 mM glycine” value is “+ (<100%=+)”. Also, on NMDAR2B, the EC50 is < 1 nM and the “NMDAR2B A: % maximal [3H]MK-801 binding relative to 1 mM glycine” value was “+ (<100%=+)”.
Regarding `O=C1NCC=CCC12CC(F)(F)CN2` (single isomer, unassigned) [GL-1, 3,3-difluoro-1,7-diazaspiro[4.6]undec-9-en-6-one], the EC50 at NMDAR2A and on NMDAR2B was < 1 nM throughout. For the same molecule, the Emax on NMDAR2A and at NMDAR2B was < 100% throughout.
`CN1CC=CCC2(CCCN2Cc2ccccc2)C1=O` (single isomer, unassigned) [GT-2, 1-benzyl-7-methyl-1,7-diazaspiro[4.6]undec-9-en-6-one]: the values for the EC50 on NMDAR2A and at NMDAR2B were < 1 nM and ≥ 1 nM, respectively.
`CN1CC=CCC2(CCCN2C)C1=O` (stereo not shown) [listing 2 of 2 here]: at NMDAR2A, the “NMDAR2A B: log EC50” value was “−” and the “NMDAR2A A: % maximal [3H]MK-801 binding relative to 1 mM glycine” value was “− (−=0)”. Also, on NMDAR2B, the “NMDAR2B B: log EC50” value was “−” and the Emax was 0%.

The record behind these values is US20210047324A1 (Aptinyx Inc., priority 2018, published 2021).
